Reference: PubChem BioAssay (NCI)
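Assay format: 96-well plates, 48-hour exposure. GI50 = concentration required for 50% inhibition of growth. TGI denotes the concentration required for complete inhibition of growth.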

Key:
Test in all cases: DTP human tumour cell line panel, 48 h
NCI-H522 lung = test system: NCI-H522 lung
HT29 colon = test system: HT29 colon
OVCAR-3 ovarian = test system: OVCAR-3 ovarian
OVCAR-4 ovarian = test system: OVCAR-4 ovarian
MCF7 breast = test system: MCF7 breast
SNB-19 CNS = test system: SNB-19 CNS
CAKI-1 renal = test system: CAKI-1 renal
RPMI-8226 leukemia = test system: RPMI-8226 leukemia
T-47D breast = test system: T-47D breast
UACC-257 melanoma = test system: UACC-257 melanoma
KM12 colon = test system: KM12 colon
SW-620 colon = test system: SW-620 colon
U251 CNS = test system: U251 CNS
UACC-62 melanoma = test system: UACC-62 melanoma
NCI-H23 lung = test system: NCI-H23 lung
DU-145 prostate = test system: DU-145 prostate
SF-268 CNS = test system: SF-268 CNS
OVCAR-8 ovarian = test system: OVCAR-8 ovarian
OVCAR-5 ovarian = test system: OVCAR-5 ovarian
COLO 205 colon = test system: COLO 205 colon
SR leukemia = test system: SR leukemia
PC-3 prostate = test system: PC-3 prostate
SF-295 CNS = test system: SF-295 CNS
HS 578T breast = test system: HS 578T breast
MOLT-4 leukemia = test system: MOLT-4 leukemia
SK-MEL-28 melanoma = test system: SK-MEL-28 melanoma
M14 melanoma = test system: M14 melanoma
A549 NSCLC = test system: A549 NSCLC
SN12C renal = test system: SN12C renal
HOP-92 NSCLC = test system: HOP-92 NSCLC
SNB-75 CNS = test system: SNB-75 CNS
MALME-3M melanoma = test system: MALME-3M melanoma
MDA-MB-435 = test system: MDA-MB-435
SK-OV-3 ovarian = test system: SK-OV-3 ovarian
HCT-116 colon = test system: HCT-116 colon
UO-31 renal = test system: UO-31 renal
K-562 leukemia = test system: K-562 leukemia
EKVX NSCLC = test system: EKVX NSCLC
CCRF-CEM leukemia = test system: CCRF-CEM leukemia
A498 renal = test system: A498 renal
MDA-MB-231 breast = test system: MDA-MB-231 breast
NCI-H460 lung = test system: NCI-H460 lung
SK-MEL-2 melanoma = test system: SK-MEL-2 melanoma
HCT-15 colon = test system: HCT-15 colon
ACHN renal = test system: ACHN renal
HL-60(TB) leukemia = test system: HL-60(TB) leukemia
TK-10 renal = test system: TK-10 renal
SF-539 CNS = test system: SF-539 CNS
BT-549 breast = test system: BT-549 breast
NCI/ADR-RES ovarian = test system: NCI/ADR-RES ovarian
HOP-62 NSCLC = test system: HOP-62 NSCLC
LOX IMVI melanoma = test system: LOX IMVI melanoma
786-0 renal = test system: 786-0 renal
HCC-2998 colon = test system: HCC-2998 colon

CC(=O)Nc1c(Br)cc2c(c1Br)Cc1cc(Br)ccc1-2
GI50 (NCI-H522 lung): 27 µM | TGI (NCI-H522 lung): > 100 µM | GI50 (HT29 colon): 24.3 µM | TGI (HT29 colon): > 100 µM | GI50 (OVCAR-3 ovarian): 8.42 µM | TGI (OVCAR-3 ovarian): 21.1 µM | GI50 (OVCAR-4 ovarian): 2.47 µM | TGI (OVCAR-4 ovarian): 6.6 µM | GI50 (MCF7 breast): 9.29 µM | TGI (MCF7 breast): 96.1 µM | GI50 (SNB-19 CNS): 12.8 µM | TGI (SNB-19 CNS): 43 µM | GI50 (CAKI-1 renal): 1.98 µM | TGI (CAKI-1 renal): 10.7 µM | GI50 (RPMI-8226 leukemia): 50.5 µM | TGI (RPMI-8226 leukemia): > 100 µM | GI50 (T-47D breast): 3.34 µM | TGI (T-47D breast): > 100 µM | GI50 (UACC-257 melanoma): 19.3 µM | TGI (UACC-257 melanoma): > 100 µM | GI50 (KM12 colon): 11.6 µM | TGI (KM12 colon): 55.1 µM | GI50 (SW-620 colon): 3.97 µM | TGI (SW-620 colon): 15.6 µM | GI50 (U251 CNS): 3.32 µM | TGI (U251 CNS): 12.4 µM | GI50 (UACC-62 melanoma): 11.1 µM | TGI (UACC-62 melanoma): > 100 µM | GI50 (NCI-H23 lung): 3.64 µM | TGI (NCI-H23 lung): 16 µM | GI50 (DU-145 prostate): 6.44 µM | TGI (DU-145 prostate): 21.4 µM | GI50 (SF-268 CNS): 9.04 µM | TGI (SF-268 CNS): 41 µM | GI50 (OVCAR-8 ovarian): 4.62 µM | TGI (OVCAR-8 ovarian): 18.8 µM | GI50 (OVCAR-5 ovarian): 12 µM | TGI (OVCAR-5 ovarian): 27 µM | GI50 (COLO 205 colon): 2.44 µM | TGI (COLO 205 colon): 13.1 µM | GI50 (SR leukemia): 6.87 µM | TGI (SR leukemia): 31.1 µM | GI50 (PC-3 prostate): 10.3 µM | TGI (PC-3 prostate): 26.2 µM | GI50 (SF-295 CNS): 1.61 µM | TGI (SF-295 CNS): 3.76 µM | GI50 (HS 578T breast): 1.96 µM | TGI (HS 578T breast): 5.73 µM | GI50 (MOLT-4 leukemia): > 100 µM | TGI (MOLT-4 leukemia): > 100 µM | GI50 (SK-MEL-28 melanoma): 5.54 µM | TGI (SK-MEL-28 melanoma): 24.4 µM | GI50 (M14 melanoma): 3.7 µM | TGI (M14 melanoma): 18.3 µM | GI50 (A549 NSCLC): 3.94 µM | TGI (A549 NSCLC): 14.8 µM | GI50 (SN12C renal): 4.67 µM | TGI (SN12C renal): 18.9 µM | GI50 (HOP-92 NSCLC): 0.675 µM | TGI (HOP-92 NSCLC): 22.5 µM | GI50 (SNB-75 CNS): 1.24 µM | TGI (SNB-75 CNS): 3.31 µM | GI50 (MALME-3M melanoma): 7.26 µM | TGI (MALME-3M melanoma): 53.4 µM | GI50 (MDA-MB-435): 4.15 µM | TGI (MDA-MB-435): 21.1 µM | GI50 (SK-OV-3 ovarian): 4.22 µM | TGI (SK-OV-3 ovarian): 17.2 µM | GI50 (HCT-116 colon): 2.76 µM | TGI (HCT-116 colon): 10.9 µM | GI50 (UO-31 renal): 0.581 µM | TGI (UO-31 renal): 13.7 µM | GI50 (K-562 leukemia): 59.9 µM | TGI (K-562 leukemia): > 100 µM | GI50 (EKVX NSCLC): 0.392 µM | TGI (EKVX NSCLC): 13.8 µM | GI50 (CCRF-CEM leukemia): 24.1 µM | TGI (CCRF-CEM leukemia): > 100 µM | GI50 (A498 renal): 3.87 µM | TGI (A498 renal): 14.9 µM | GI50 (MDA-MB-231 breast): 5.11 µM | TGI (MDA-MB-231 breast): 20.3 µM | GI50 (NCI-H460 lung): 2.94 µM | TGI (NCI-H460 lung): 11.4 µM | GI50 (SK-MEL-2 melanoma): 12.6 µM | TGI (SK-MEL-2 melanoma): 32.7 µM | GI50 (HCT-15 colon): 12.3 µM | TGI (HCT-15 colon): > 100 µM | GI50 (ACHN renal): 3.17 µM | TGI (ACHN renal): 14.1 µM | GI50 (HL-60(TB) leukemia): 50.5 µM | TGI (HL-60(TB) leukemia): > 100 µM | GI50 (TK-10 renal): 12.4 µM | TGI (TK-10 renal): 26.1 µM | GI50 (SF-539 CNS): 13.6 µM | TGI (SF-539 CNS): 33.2 µM | GI50 (BT-549 breast): 2.83 µM | TGI (BT-549 breast): 13.4 µM | GI50 (NCI/ADR-RES ovarian): 3.38 µM | TGI (NCI/ADR-RES ovarian): 13.6 µM | GI50 (HOP-62 NSCLC): 2.51 µM | TGI (HOP-62 NSCLC): 13.9 µM | GI50 (LOX IMVI melanoma): 2.28 µM | TGI (LOX IMVI melanoma): 6.6 µM | GI50 (786-0 renal): 1.83 µM | TGI (786-0 renal): 3.43 µM | GI50 (HCC-2998 colon): 3.01 µM | TGI (HCC-2998 colon): 11.8 µM
